Test results as given in ChEMBL document CHEMBL1201862, “PubChem BioAssay data set” (2004).
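Growth conditions: 96-well plates. Treatment: test compound, 48 hours, 5 concentrations. Analysis: linear interpolation between bracketing concentrations; unreached endpoints set to highest concentration. The concentration for 50% growth inhibition is given as GI50.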 Activity calls are given as the source filed them. Cut-off read from the data, not from the text of the source: active = GI50 up to about 1.1 µM and inactive = higher.

Key:
Assay in all cases: NCI-60 cell line screen, 48 h
[1] = test system: DLD-1
[2] = test system: LXFL 529
[3] = test system: M19-MEL
[4] = test system: DMS-273
[5] = test system: HOP-18
[6] = test system: SNB-78
[7] = test system: DMS-114
[8] = test system: KM-20L2
[9] = test system: RXF 631

Measured: GI50

CN(C)c1ccc(/C=C/c2cc[n+](C)c3ccccc23)cc1
inactive: [1] 2.68 µM | [2] 1.23 µM | [3] 1.44 µM | [4] 2.39 µM | [5] 3.47 µM | [6] 7.59 µM | [7] 2.3 µM | [8] 3.04 µM

CC(=O)NC(CCCCNC(=O)NCCCl)C(=O)NCc1ccccc1 (configuration not stated)
inactive: [1] > 100 µM | [2] > 100 µM | [3] > 100 µM | [4] > 100 µM | [5] > 100 µM | [9] > 100 µM | [7] > 100 µM | [8] > 100 µM

COC(=O)c1cc(C(=O)OC)c(CC(=O)C(=O)NC2C3CC4CC(C3)CC2C4)nc1CC(=O)C(=O)NC1C2CC3CC(C2)CC1C3 (configuration not stated)
inactive: [1] > 100 µM | [2] > 100 µM | [3] > 100 µM | [4] > 100 µM | [5] > 100 µM | [6] > 100 µM | [7] > 100 µM | [8] > 100 µM

Cc1cc2c(C)n(Cc3ccc(Cl)cc3Cl)nc2c(C#N)c1C
inactive: [1] > 100 µM | [2] 59.6 µM | [3] 73.8 µM | [4] 50.8 µM | [5] 40.8 µM | [6] 24.4 µM | [7] 36.4 µM | [8] 36.5 µM

O=C(Nc1ccc(Br)cc1)C(=O)C(C(=O)c1ccc(Cl)c(Cl)c1)C1OC(=O)c2ccccc21 (configuration not stated)
inactive: [1] 18.3 µM | [2] 9.98 µM | [3] 15 µM | [4] 19.1 µM | [5] 14.4 µM | [6] 17.1 µM | [7] 10.9 µM | [8] 33 µM

COc1ccc(OC)c(NC(=O)C(=O)C(C(C)=O)c2nc3ccc(Cl)cc3nc2O)c1 (configuration not stated)
inactive: [1] > 50 µM | [2] > 50 µM | [3] > 50 µM | [4] > 50 µM | [5] 45.2 µM | [6] > 50 µM | [9] > 50 µM | [7] > 50 µM | [8] > 50 µM

[N-]=[N+]=Nc1nnc(CCCCc2nnc(N=[N+]=[N-])o2)o1
inactive: [1] > 100 µM | [2] > 100 µM | [3] > 100 µM | [5] > 100 µM | [6] > 100 µM | [9] 25.4 µM | [7] > 100 µM | [8] > 100 µM

COC(=O)/C=C(C)/C=C/C1OC(C)OCC1O (configuration not stated)
inactive: [1] > 100 µM | [2] > 100 µM | [3] > 100 µM | [4] > 100 µM | [6] > 100 µM | [7] > 100 µM | [8] > 100 µM

COC(=O)C(=O)C(C(=O)C(=O)Nc1cc([N+](=O)[O-])ccc1[N+](=O)[O-])c1nc2ccc(C(=O)c3ccccc3)cc2nc1O (configuration not stated)
inactive: [1] 52.2 µM | [2] 23.4 µM | [3] 28.4 µM | [4] 22.4 µM | [5] 8.02 µM | [6] 19.2 µM | [9] 49.3 µM | [7] 23.2 µM

Nc1nc2c(ncn2Cc2ccccc2CCO)c(=O)[nH]1
inactive: [2] > 100 µM | [3] > 100 µM | [4] > 100 µM | [9] > 100 µM | [7] > 100 µM | [8] > 100 µM

Oc1nc2cc(Cl)ccc2nc1/C(=N\Nc1ccccc1)C(O)c1ccc(Cl)c(Cl)c1 (configuration not stated)
inactive: [1] > 100 µM | [2] > 100 µM | [3] > 100 µM | [4] > 100 µM | [6] > 100 µM | [9] > 100 µM | [7] > 100 µM | [8] > 100 µM

Cc1csc2nc(-c3ccncc3)cn12
inactive: [1] > 63.1 µM | [2] > 51.3 µM | [3] > 59.6 µM | [4] 19.7 µM | [5] > 57.9 µM | [6] > 100 µM | [9] > 88.3 µM | [7] > 42.1 µM | [8] > 65 µM

O=C1NC(c2ccc(O)cc2)C2CCC1C2 (configuration not stated)
inactive: [1] > 100 µM | [2] > 100 µM | [3] > 100 µM | [6] > 100 µM | [7] > 100 µM | [8] > 100 µM

Nc1ncnc2c1sc(=S)n2-c1ccccc1
inactive: [1] > 100 µM | [2] > 100 µM | [3] > 100 µM | [4] > 100 µM | [5] > 100 µM | [6] > 100 µM | [7] > 100 µM | [8] > 100 µM

N#Cc1cc([N+](=O)[O-])ccc1NC(=O)C(F)(F)F
inactive: [1] > 58.9 µM | [2] > 100 µM | [3] > 100 µM | [4] > 100 µM | [5] > 85.9 µM | [6] > 100 µM | [7] > 40.8 µM | [8] > 74.5 µM

CCN(CC)c1ccc(/N=N/c2ccc(-c3nc4cccn(C)c-4n3)cc2)cc1
inactive: [1] 4.83 µM | [2] 3.95 µM | [3] 5.38 µM | [4] 3.18 µM | [5] 40.1 µM | [6] 16.7 µM | [9] 3.41 µM | [7] 3.61 µM | [8] 5.32 µM

Cc1ccc(SC(C)/C=C/NNC2=NN=C(c3ccccc3)C(c3ccccc3)N2)cc1 (configuration not stated)
inactive: [1] 27.4 µM | [2] 25.8 µM | [3] 36.6 µM | [4] 32.5 µM | [5] 24.1 µM | [6] 66.7 µM | [7] 28.8 µM | [8] 14 µM

COc1ccc(C2Oc3c(c(O)cc4c3[C@H](c3ccc(O)cc3O)[C@H](O)C(c3ccc(O)c(O)c3)O4)C[C@@H]2O)cc1O (some centres not stated)
inactive: [1] > 100 µM | [2] > 100 µM | [3] > 100 µM | [4] > 100 µM | [5] > 100 µM | [6] > 100 µM | [7] > 100 µM | [8] > 100 µM
